Source: patent US10077261B2, “Imidazolin-5-one derivative useful as FASN inhibitors for the treatment of cancer” (Janssen Pharmaceutica NV, priority 2012, dated 2018)

Assays:
[1] = target: Fatty Acid Synthase Keto-reductase Domain (FASN KR) (Homo sapiens, UniProt P49327); assay: Fatty Acid Synthase keto-reductase domain (FASN KR) inhibition, NADPH oxidation at 340 nm
Description: After 20 minutes incubation at room temperature the plate was measured again (T2).
The decrease in absorbance was calculated as (Absorbance before incubation T1)−(Absorbance following incubation T2).
A plot of Controlmin versus test compound concentration was fitted to a 4-parameter logistic curve using a non-linear least squares regression method.

[2] = system: LNCaP-Vancouver prostate cells; assay: In vitro LNCaP Vancouver prostate cell proliferation assay in lipid reduced medium; assay type: cell-based; conditions: read-out: pIC50 LNCaP_Vancouver prostate cell (converted)
[3] = system: PC-3M-Luc-C6 prostate cells; assay: In vitro PC-3M-Luc-C6 prostate cell proliferation assay in lipid reduced medium; assay type: cell-based; conditions: 96 h, read-out: pIC50 PC-3M-Luc-C6 prostate cell (converted)
[4] = system: A2780 ovarian cells; assay: A2780 ovarian cell proliferation assay in lipid reduced medium, with palmitate (MTT); assay type: cell-based; conditions: Homo sapiens, A2780, 96 h; read-out: pIC50 A2780 Ovarian Cell, With Palmitate (converted)
Procedure, shortened: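 Seeded cells were switched next day to lipid-reduced serum, exposed to compound and 25 μM palmitate complexed with fatty-acid-free BSA, and incubated 96 h. Proliferation was then determined by MTT absorbance at 544 nm, with a best-fit curve of signal against concentration.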

[5] = target: T1, hFASN enzyme (full length) (Homo sapiens, UniProt P49327); assay: Fatty Acid Synthase (FASN) inhibition scintillation proximity assay; assay type: biochemical; conditions: for inhibition at 10 µM: read-out: Human FASN % inhibition @ 10 μM, 10 μM test compound; for IC50: read-out: Human FASN pIC50 (converted)
T1 construct: 10 μL hFASN enzyme (full length, 300 ng, purified in house); made in house
Procedure, shortened: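 Purified full-length hFASN (300 ng) converts ^3H-acetyl-CoA plus malonyl-CoA to ^3H-palmitate in 100 mM KH2PO4 pH 7.5, 1 mM DTT; compounds tested at 0.01–30 μM. Product captured on streptavidin imaging beads and read by LEADseeker at 610 nm after ≥24 h; 4-parameter logistic fit versus controls.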

[6] = system: A2780 ovarian cells; assay: A2780 ovarian cell proliferation assay in lipid reduced medium, without palmitate (MTT); assay type: cell-based; conditions: Homo sapiens, A2780, 96 h; read-out: pIC50 A2780 Ovarian Cell, Without Palmitate (converted)

T1 sequence (P49327 whole entry): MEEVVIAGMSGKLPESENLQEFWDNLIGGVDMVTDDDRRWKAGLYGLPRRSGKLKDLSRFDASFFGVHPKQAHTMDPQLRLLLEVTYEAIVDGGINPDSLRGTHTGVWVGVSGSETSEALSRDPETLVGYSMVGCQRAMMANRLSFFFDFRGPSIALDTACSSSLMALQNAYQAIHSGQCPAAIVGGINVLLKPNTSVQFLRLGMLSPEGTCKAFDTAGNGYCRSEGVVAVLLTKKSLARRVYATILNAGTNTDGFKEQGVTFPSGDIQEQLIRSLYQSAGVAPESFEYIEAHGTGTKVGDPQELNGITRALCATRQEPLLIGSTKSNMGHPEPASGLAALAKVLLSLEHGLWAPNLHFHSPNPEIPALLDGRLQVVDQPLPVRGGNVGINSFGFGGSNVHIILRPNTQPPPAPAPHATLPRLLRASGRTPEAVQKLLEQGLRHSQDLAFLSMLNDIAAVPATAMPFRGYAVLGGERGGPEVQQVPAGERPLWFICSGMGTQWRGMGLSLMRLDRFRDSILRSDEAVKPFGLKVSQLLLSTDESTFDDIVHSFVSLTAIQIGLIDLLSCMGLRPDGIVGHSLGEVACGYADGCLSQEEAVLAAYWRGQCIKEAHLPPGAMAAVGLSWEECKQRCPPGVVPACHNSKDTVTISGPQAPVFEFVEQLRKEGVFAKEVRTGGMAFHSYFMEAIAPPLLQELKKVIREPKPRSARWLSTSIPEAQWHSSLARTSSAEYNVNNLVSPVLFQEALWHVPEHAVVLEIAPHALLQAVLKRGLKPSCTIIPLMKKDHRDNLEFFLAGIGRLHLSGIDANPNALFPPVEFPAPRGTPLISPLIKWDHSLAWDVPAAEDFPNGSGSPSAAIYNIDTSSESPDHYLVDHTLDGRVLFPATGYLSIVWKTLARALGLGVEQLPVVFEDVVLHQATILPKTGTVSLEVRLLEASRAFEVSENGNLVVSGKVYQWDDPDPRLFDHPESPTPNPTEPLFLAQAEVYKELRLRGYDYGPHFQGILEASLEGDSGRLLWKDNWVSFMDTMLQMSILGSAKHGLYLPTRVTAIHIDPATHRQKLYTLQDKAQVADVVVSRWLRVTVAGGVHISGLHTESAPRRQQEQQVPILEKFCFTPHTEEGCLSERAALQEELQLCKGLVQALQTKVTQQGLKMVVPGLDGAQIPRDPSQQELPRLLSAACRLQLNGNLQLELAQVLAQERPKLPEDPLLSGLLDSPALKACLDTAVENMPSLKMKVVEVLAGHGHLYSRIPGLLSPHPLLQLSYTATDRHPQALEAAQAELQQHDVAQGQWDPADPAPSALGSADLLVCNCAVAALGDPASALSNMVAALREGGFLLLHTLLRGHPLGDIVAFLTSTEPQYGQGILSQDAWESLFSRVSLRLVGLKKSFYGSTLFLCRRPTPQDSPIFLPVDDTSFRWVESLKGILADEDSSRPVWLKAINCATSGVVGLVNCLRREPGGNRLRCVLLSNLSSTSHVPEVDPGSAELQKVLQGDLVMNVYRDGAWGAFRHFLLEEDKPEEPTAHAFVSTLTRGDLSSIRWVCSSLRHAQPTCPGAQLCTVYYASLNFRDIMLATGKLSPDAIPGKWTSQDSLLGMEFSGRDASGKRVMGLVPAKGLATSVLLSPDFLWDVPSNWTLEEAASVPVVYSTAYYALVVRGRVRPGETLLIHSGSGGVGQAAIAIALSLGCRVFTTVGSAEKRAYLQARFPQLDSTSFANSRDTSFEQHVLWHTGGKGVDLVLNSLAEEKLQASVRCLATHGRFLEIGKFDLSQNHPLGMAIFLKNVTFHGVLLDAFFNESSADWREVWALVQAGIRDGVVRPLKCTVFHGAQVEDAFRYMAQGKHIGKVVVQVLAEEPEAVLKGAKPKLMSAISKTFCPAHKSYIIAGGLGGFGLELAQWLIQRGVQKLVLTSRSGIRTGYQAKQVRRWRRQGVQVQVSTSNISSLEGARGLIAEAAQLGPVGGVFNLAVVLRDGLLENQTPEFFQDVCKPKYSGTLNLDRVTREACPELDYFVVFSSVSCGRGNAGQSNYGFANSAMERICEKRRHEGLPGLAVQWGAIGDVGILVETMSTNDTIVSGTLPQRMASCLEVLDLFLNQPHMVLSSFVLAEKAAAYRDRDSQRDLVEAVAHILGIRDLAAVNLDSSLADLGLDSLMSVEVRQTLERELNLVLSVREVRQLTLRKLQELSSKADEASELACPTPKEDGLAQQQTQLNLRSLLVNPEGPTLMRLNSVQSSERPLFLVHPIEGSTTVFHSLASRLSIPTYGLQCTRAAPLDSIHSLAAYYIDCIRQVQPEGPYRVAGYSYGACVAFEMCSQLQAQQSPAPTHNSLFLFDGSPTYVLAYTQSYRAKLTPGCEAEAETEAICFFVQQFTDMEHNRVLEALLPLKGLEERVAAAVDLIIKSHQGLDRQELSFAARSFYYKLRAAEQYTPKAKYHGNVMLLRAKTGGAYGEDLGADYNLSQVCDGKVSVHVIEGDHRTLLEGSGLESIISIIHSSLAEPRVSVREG
Chain of Fatty Acid Synthase Keto-reductase Domain (FASN KR) (P49327 whole entry, the tested form may be a part): as the sequence (P49327 whole entry) above

Row | SMILES | IC50 [1] | IC50 [2] | IC50 [3] | IC50 [4] | inhibition at 10 µM [5] | IC50 [5] | IC50 [6]
1 | Cc1ccnc2cc(-c3ccc(C4=NC5(CC5)C(=O)N4CC4CN(C(=O)C5CC5)C4)cc3)ccc12 [compound 554, 6-{[1-(Cyclopropylcarbonyl)azetidin-3-yl]methyl}-5-[4-(4-methylquinolin-7-yl)phenyl]-4,6-diazaspiro[2.4]hept-4-en-7-one] | 269 nM | 646 nM | ~174 nM | 7760 nM | 97% | 129 nM | ~145 nM
2 | Cn1nc(C(N)=O)c2ccc(-c3ccc(C4=NC5(CC5)C(=O)N4C[C@@H]4CCN(C(=O)C5CC5)C4)cc3)cc21 [compound 221, (R)-6-(4-(6-((1-(cyclopropanecarbonyl)pyrrolidin-3-yl)methyl)-7-oxo-4,6-diazaspiro[2.4]hept-4-en-5-yl)phenyl)-1-methyl-1H-indazole-3-carboxamide] | 234 nM | ~380 nM | 132 nM | 6920 nM | 92% | 97.7 nM | 46.8 nM
3 | COc1ccc2cc(-c3ccc(C4=NC5(CC5)C(=O)N4CC4CN(C(=O)C5CC5)C4)c(F)c3)ccc2c1 [compound 351, 6-((1-(cyclopropanecarbonyl)azetidin-3-yl)methyl)-5-(2-fluoro-4-(6-methoxynaphthalen-2-yl)phenyl)-4,6-diazaspiro[2.4]hept-4-en-7-one] | 61.7 nM | 57.5 nM | 13.8 nM | 8510 nM | 95% | 74.1 nM | 28.2 nM
4 | O=C(C1CC1)N1CC[C@@H](CN2C(=O)C3(CC3)N=C2c2ccc(-c3nc4ccccc4o3)cc2)C1 [compound 307, (R)-5-(4-(benzo[d]oxazol-2-yl)phenyl)-6-((1-(cyclopropanecarbonyl)pyrrolidin-3-yl)methyl)-4,6-diazaspiro[2.4]hept-4-en-7-one] | 145 nM | 661 nM | 102 nM | > 10000 nM | 100% | 67.6 nM | 91.2 nM
5 | Cc1nc2cc(-c3ccc(C4=NC5(CC5)C(=O)N4CC4CN(C(=O)C5CC5)C4)cc3)ccc2s1 [compound 562, 6-{[1-(Cyclopropylcarbonyl)azetidin-3-yl]methyl}-5-[4-(2-methyl-1,3-benzothiazol-5-yl)phenyl]-4,6-diazaspiro[2.4]hept-4-en-7-one] | 1380 nM | 3090 nM | 1620 nM | > 10000 nM | 97% | 245 nM | 955 nM
6 | O=C(C1CC1)N1CC[C@@H](CN2C(=O)C3(CCCC3)N=C2c2ccc(-c3ccc4[nH]cnc4c3)cc2F)C1 [compound 877, (R)-2-(4-(1H-benzo[d]imidazol-5-yl)-21-fluorophenyl)-3-((1-(cyclopropanecarbonyl)pyrrolidin-3-yl)methyl)-1,3-diazaspiro[4.4]non-1-en-4-one] | 74.1 nM | ~407 nM | 45.7 nM | > 10000 nM | 103% | 33.9 nM | 21.4 nM
7 | O=C(C1CC1)N1CC[C@@H](CN2C(=O)C3(CC3)N=C2c2ccc(-c3ccc4cc[nH]c4c3)cn2)C1 [compound 428, 6-{[(3R)-1-(Cyclopropylcarbonyl)pyrrolidin-3-yl]methyl}-5-[5-(1H-indol-6-yl)pyridin-2-yl]-4,6-diazaspiro[2.4]hept-4-en-7-one] | 589 nM | 2820 nM | 794 nM | > 10000 nM | 101% | 138 nM | ~1100 nM
8 | O=C(C1CC1)N1CC(CN2C(=O)C3(CC3)N=C2c2ccc(-c3ccc4cc[nH]c4c3)cc2)C1 [compound 299, 5-(4-(1H-indol-6-yl)phenyl)-6-((1-(cyclopropanecarbonyl)azetidin-3-yl)methyl)-4,6-diazaspiro[2.4]hept-4-en-7-one] | 58.9 nM | 234 nM | 38.9 nM | > 10000 nM | 101% | 22.9 nM | 30.9 nM
9 | N#Cc1ccc2cc(-c3ccc(C4=NC5(CC5)C(=O)N4CC4CN(C(=O)C5(O)CC5)C4)c(F)c3)ccc2c1 [compound 872, 6-(3-fluoro-4-(6-((1-(1-hydroxycyclopropanecarbonyl)azetidin-3-yl)methyl)-7-oxo-4,6-diazaspiro[2.4]hept-4-en-5-yl)phenyl)-2-naphthonitrile] | 42.7 nM | 24 nM | 4.79 nM | ~7940 nM | 99% | 23.4 nM | 2.69 nM
10 | Cc1cc(-c2ccc3c(c2)cc(C)n3C)ccc1C1=NC2(CC2)C(=O)N1CC1CN(C(=O)C2CC2)C1 [compound 582, 6-{[1-(Cyclopropylcarbonyl)azetidin-3-yl]methyl}-5-[4-(1,2-dimethyl-1H-indol-5-yl)-2-methylphenyl]-4,6-diazaspiro[2.4]hept-4-en-7-one] | 1200 nM | 3240 nM | 794 nM | > 10000 nM | 103% | 324 nM | ~631 nM

Results, then the compound that gave them:

Row | IC50 [1] | IC50 [2] | IC50 [3] | IC50 [4] | inhibition at 10 µM [5] | IC50 [5] | IC50 [6] | SMILES
11 | 195 nM | 1620 nM | ~891 nM | > 10000 nM | 106% | 69.2 nM | 1860 nM | O=C(C1CC1)N1CC[C@@H](CN2C(=O)C3(CC3)N=C2c2ccc(-c3ccc4sccc4c3)cn2)C1 [compound 342, (R)-5-(5-(benzo[b]thiophen-5-yl)pyridin-2-yl)-6-((1-(cyclopropanecarbonyl)pyrrolidin-3-yl)methyl)-4,6-diazaspiro[2.4]hept-4-en-7-one]
12 | 53.7 nM | 43.7 nM | 22.4 nM | > 10000 nM | 97% | 49 nM | ~17 nM | O=C(C1CC1)N1CC(CN2C(=O)C3(CC3)N=C2c2ccc(-c3ccc4cccnc4c3)cc2F)C1 [compound 346, 6-((1-(cyclopropanecarbonyl)azetidin-3-yl)methyl)-5-(2-fluoro-4-(quinolin-7-yl)phenyl)-4,6-diazaqspiro[2.4]hept-4-en-7-one]
13 | 302 nM | ~2510 nM | 1580 nM | > 10000 nM | 103% | 151 nM | ~2140 nM | Cc1sc2ccc(-c3ccc(C4=NC5(CC5)C(=O)N4CC4CN(C(=O)C5CC5)C4)cc3)cc2c1C [compound 418, 6-{[1-(Cyclopropylcarbonyl)azetidin-3-yl]methyl}-5-[4-(2,3-dimethyl-1-benzothiophen-5-yl)phenyl]-4,6-diazaspiro[2.4]hept-4-en-7-one]
14 | 209 nM | 1170 nM | 234 nM | > 10000 nM | 100% | 182 nM | 67.6 nM | Cc1cc(C2=NC3(CC3)C(=O)N2C[C@@H]2CCN(C(=O)C3CC3)C2)ccc1-c1cccc2[nH]ncc12 [compound 445, 6-{[(3R)-1-(Cyclopropylcarbonyl)pyrrolidin-3-yl]methyl}-5-[4-(1H-indazol-4-yl)-3-methylphenyl]-4,6-diazaspiro[2.4]hept-4-en-7-one]
15 | 112 nM | 245 nM | 35.5 nM | > 10000 nM | 100% | 50.1 nM | 30.9 nM | Cc1cc2cc(-c3ccc(C4=NC5(CC5)C(=O)N4C[C@@H]4CCN(C(=O)C5(O)CC5)C4)c(F)c3)ccc2s1 [compound 354, (R)-5-(2-fluoro-4-(2-methylbenzo[b]thiophen-5-yl)phenyl)-6-((1-(1-hydroxycyclopropanecarbonyl)pyrrolidin-3-yl)methyl)-4,6-diazaspiro[2.4]hept-4-en-7-one]
16 | 891 nM | 447 nM | 479 nM | 7240 nM | 91% | 302 nM | ~676 nM | Cc1ccc(-c2ccc(-c3ccc(C4=NC5(CC5)C(=O)N4C[C@H]4CCN(C(=O)C5CC5)C4)cc3)cc2)cc1 [compound 413, 6-{[(3S)-1-(Cyclopropylcarbonyl)pyrrolidin-3-yl]methyl}-5-(4″-methyl-1,1′:4′,1″-terphenyl-4-yl)-4,6-diazaspiro[2.4]hept-4-en-7-one]
17 | 112 nM | 646 nM | 117 nM | > 10000 nM | 101% | 79.4 nM | 66.1 nM | Cn1ncc2cc(-c3ccc(C4=NC5(CCCC5)C(=O)N4C[C@@H]4CCN(C(=O)C5CC5)C4)c(F)c3)ccc21 [compound 880, (R)-3-((1-(cyclopropanecarbonyl)pyrrolidin-3-yl)methyl)-2-(2-fluoro-4-(1-methyl-1H-indazol-5-yl)phenyl)-1,3-diazaspiro[4.4]non-1-en-4-one]
